pIC50: −log10 of the molar value.
Columns and labels:
[1] = molecular target: Prolyl endopeptidase (Sus scrofa, UniProt P23687)
Description: In vitro inhibition of prolyl oligopeptidase (POP) from pig brain

[2] = Partition coefficient (logP); assay type: physicochemical; settings: octanol/water
[3] = molecular target: Prolyl endopeptidase (Sus scrofa) (UniProt P23687); experiment: Compound was tested for in vitro inhibition of prolyl oligopeptidase (POP) from pig brain at 0.1 mM
Chain of Prolyl endopeptidase (Sus scrofa) (P23687 whole entry, looked up): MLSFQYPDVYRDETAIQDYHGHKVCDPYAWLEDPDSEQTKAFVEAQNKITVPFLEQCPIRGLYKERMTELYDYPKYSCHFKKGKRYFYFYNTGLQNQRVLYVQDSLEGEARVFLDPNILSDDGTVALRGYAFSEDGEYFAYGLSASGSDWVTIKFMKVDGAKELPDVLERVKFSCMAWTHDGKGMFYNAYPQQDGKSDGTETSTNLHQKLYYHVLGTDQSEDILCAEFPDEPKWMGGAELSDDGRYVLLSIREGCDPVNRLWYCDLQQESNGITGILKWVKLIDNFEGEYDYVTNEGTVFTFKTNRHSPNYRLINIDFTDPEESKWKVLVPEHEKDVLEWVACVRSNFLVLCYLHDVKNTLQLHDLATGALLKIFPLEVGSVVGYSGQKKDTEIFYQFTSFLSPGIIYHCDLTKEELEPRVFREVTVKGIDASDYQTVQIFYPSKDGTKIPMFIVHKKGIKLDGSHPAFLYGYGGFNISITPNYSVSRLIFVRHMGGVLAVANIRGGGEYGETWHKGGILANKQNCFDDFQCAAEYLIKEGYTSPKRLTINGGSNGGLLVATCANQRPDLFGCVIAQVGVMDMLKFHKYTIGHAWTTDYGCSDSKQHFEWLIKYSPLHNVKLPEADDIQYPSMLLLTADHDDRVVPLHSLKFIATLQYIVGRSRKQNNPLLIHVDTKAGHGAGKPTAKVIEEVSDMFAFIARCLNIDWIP

Chain of Prolyl endopeptidase (P23687 whole entry): as the sequence (P23687 whole entry, looked up) above

Row | pIC50 [1] | logP [2] | inhibition [3] | SMILES
1 | 6.96 | – | – | CSCC[C@H](NC(=O)c1cccc(C(=O)N[C@H](CCSC)C(=O)N2CCCC2)c1)C(=O)N1CCCC1
2 | 7.19 | – | – | CC(=O)[C@H]1CCCN1C(=O)c1cccc(C(=O)N2CCC[C@H]2C(=O)N2CCCC2)c1
3 | 7.41 | – | – | C[C@H](NC(=O)c1cccc(C(=O)N2CCC[C@H]2C(=O)N2CCCC2)c1)C(=O)N1CCCC1
4 | 9.41 | – | – | O=C(CO)[C@@H]1CCCN1C(=O)[C@@H]1CCCN1C(=O)c1cccc(C(=O)N2CCC[C@H]2C(=O)N2CCCC2)c1
5 | 8.80 | 0.3 | – | CC(C)C(=O)[C@H]1CCCN1C(=O)c1cccc(C(=O)N2CCC[C@H]2C(=O)N2CCC[C@@H]2C#N)c1
6 | 6.19 | – | – | O=C(NCC(=O)N1CCCC1)c1cccc(C(=O)NCC(=O)N2CCCC2)c1
7 | 7.48 | – | – | O=C([C@H]1CCCN1C(=O)c1cccc(C(=O)N2CCC[C@H]2C(=O)N2CCNCC2)c1)N1CCCC1
8 | 7.85 | – | – | O=C(C1CCCC1)[C@H]1CCCN1C(=O)c1cccc(C(=O)N2CCC[C@H]2C(=O)N2CCCC2)c1
9 | 6.77 | – | – | CC(C)(C)OC(=O)N1CCN(C(=O)[C@H]2CCCN2C(=O)c2cccc(C(=O)N3CCC[C@H]3C(=O)N3CCCC3)c2)CC1
10 | – | -0.2 | – | O=C([C@@H]1CCCN1C(=O)c1cccc(C(=O)N2CCC[C@H]2C(=O)N2CCCC2)c1)N1CCCC1
11 | 8.89 | 1.1 | – | N#C[C@H]1CCCN1C(=O)[C@@H]1CCCN1C(=O)c1cccc(C(=O)N2CCC[C@@H]2C(=O)c2ccccc2)c1
12 | – | 0.7 | – | CC(C)(CC(=O)N1CCC[C@H]1C(=O)C1CCCC1)CC(=O)N1CCC[C@H]1C(=O)N1CCC[C@H]1C(=O)CO
13 | 8.38 | -0.6 | – | CC(=O)[C@H]1CCCN1C(=O)c1cccc(C(=O)N2CCC[C@H]2C(=O)N2CCC[C@@H]2C#N)c1
14 | 6.19 | – | – | COC(=O)[C@H]1CCCN1C(=O)c1cccc(C(=O)N2CCC[C@H]2C(=O)C2CCCC2)c1
15 | 8.92 | – | – | CC(=O)[C@H]1CCCN1C(=O)c1cccc(C(=O)N2CCC[C@H]2C(=O)N2CCC[C@@H]2C(=O)CO)c1
16 | 7.51 | – | – | O=C(NCc1ccccc1)[C@@H]1CCCN1C(=O)c1cccc(C(=O)N2CCC[C@@H]2C(=O)N2CCCC2)c1
17 | 7.09 | – | – | O=C(N[C@@H](Cc1ccccc1)C(=O)N1CCCC1)c1cccc(C(=O)N[C@H](Cc2ccccc2)C(=O)N2CCCC2)c1
18 | 9.14 | – | – | N#C[C@H]1CCCN1C(=O)[C@@H]1CCCN1C(=O)c1cccc(C(=O)N2CCC[C@@H]2C(=O)C2CCCCC2)c1
19 | 7.11 | 2.7 | – | O=C(C1CCCC1)[C@H]1CCCN1C(=O)c1cccc(C(=O)N2CCC[C@H]2C(=O)C2CCCC2)c1
20 | 7.27 | – | – | COC(=O)[C@H]1CCCN1C(=O)c1cccc(C(=O)N2CCC[C@H]2C(=O)N2CCCC2)c1
21 | 8.96 | 0.8 | – | N#C[C@H]1CCCN1C(=O)[C@@H]1CCCN1C(=O)c1cccc(C(=O)N2CCC[C@@H]2C(=O)C2CCCC2)c1
22 | – | – | 54% | CC(=O)[C@H]1CCCN1C(=O)c1cccc(C(=O)N2CCC[C@H]2C(C)=O)c1
23 | 7.64 | – | – | O=C([C@H]1CCCN1C(=O)c1cccc(C(=O)N2CCC[C@H]2C(=O)N2CCCCCC2)c1)N1CCCC1
24 | 9.24 | – | – | CC(C)(CC(=O)N1CCC[C@H]1C(=O)C1CCCC1)CC(=O)N1CCC[C@H]1C(=O)N1CCC[C@H]1C#N
25 | 7.06 | – | – | C[C@H](NC(=O)c1cccc(C(=O)N[C@H](C)C(=O)N2CCCC2)c1)C(=O)N1CCCC1
26 | 7.74 | – | – | O=C(c1ccccc1)[C@H]1CCCN1C(=O)c1cccc(C(=O)N2CCC[C@H]2C(=O)N2CCCC2)c1
27 | 9.21 | 0.2 | – | O=C(CO)[C@H]1CCCN1C(=O)[C@@H]1CCCN1C(=O)c1cccc(C(=O)N2CCC[C@@H]2C(=O)C2CCCC2)c1

Source: ChEMBL document CHEMBL1145128, “New prolyl oligopeptidase inhibitors developed from dicarboxylic acid bis(l-prolyl-pyrrolidine) amides” (J Med Chem, 2003)
